Laboratory results as given in PMC2879362, “Design of Group IIA Secreted/Synovial Phospholipase A2 Inhibitors: An Oxadiazolone Derivative Suppresses Chondrocyte Prostaglandin E2 Secretion” (PLoS ONE, 2010).

Assays:
[1] = molecular target: T1, porcine group IB PLA2 (pGIBPLA2) (Sus scrofa, UniProt P00592); experiment: In vitro fluorimetric PLA2 assay (β-py-C10-PG substrate); type: biochemical; conditions: 2 µM β-py-C10-PG, 6 ng/mL pancreatic PLA2
T1 construct: purchased Sigma
Protocol: (§1) The compounds C1-C8 were submitted to fluorimetric assay to determine their inhibitory potencies and selectivity towards human GIIAPLA2 (hGIIAPLA2) versus porcine group IB PLA2 (pGIBPLA2) (Table 2). GIBPLA2 is an enzyme of the same family as GIIAPLA2 (sPLA2) but is mainly involved in digestion of dietary phospholipids and is secreted by the pancreas. Lipophilicity parameters, log P, of these products are calculated by use of Rekker's fragmental data (Table 2). The molecules C1-C8 are specific inhibitors of hGIIAPLA2 because none inhibited pGIBPLA2 at the highest concentration tested (100 µM). Such selectivity implies that C1-C8 should not interfere with the digestion process.
(§2) Fatty-acid free BSA and pancreatic PLA2 were from Sigma. hGIIAPLA2 was prepared as previously described. The fluorescent substrate for PLA2 assay, 1-hexadecanoyl-2-(10-pyrenedecanoyl)-sn-glycero-3-phosphoglycerol, ammonium salt (β-py-C10-PG) was from Molecular Probes (Eugene). PLA2 activity was evaluated as previously described with β-py-C10-PG used as a substrate (2 µM final concentration). In a total volume of 1 mL, the standard reaction medium contained 50 mM Tris-HCl (pH 7.5), 500 mM NaCl, 1 mM EGTA, 2 µM β-py-C10-PG, 0.1% fatty-acid free BSA and 6 ng/mL pancreatic PLA2 or 1 ng/mL hGIIAPLA2. The fluorescence (λex = 342 nm and λem = 398 nm) of the enzymatic reaction medium was recorded for 3 min with use of a spectrofluorimeter LS 50 (Perkin-Elmer) equipped with a Xenon lamp. The reaction was initiated by the addition of CaCl2 (10 mM, final concentration). The increase in fluorescence was continuously recorded for 1 min, and PLA2 activity was calculated as previously described. When used, the inhibitor was added to the reaction medium after introduction of BSA. The activity is expressed in micromoles of fluorescent β-py-C10-PG hydrolyzed per min. The standard error of the mean of three independent experiments was less than 10%, which allows for the determination of the IC50 values (concentration of inhibitors producing 50% inhibition) of each compound.

[2] = molecular target: T2, human GIIAPLA2 (hGIIAPLA2) (Homo sapiens, UniProt P14555); experiment: as above; type: biochemical; conditions: 2 µM β-py-C10-PG, 1 ng/mL hGIIAPLA2
T2 construct: hGIIAPLA2 was prepared as previously described [33]; made in house
T2 sequence (P14555 21-144): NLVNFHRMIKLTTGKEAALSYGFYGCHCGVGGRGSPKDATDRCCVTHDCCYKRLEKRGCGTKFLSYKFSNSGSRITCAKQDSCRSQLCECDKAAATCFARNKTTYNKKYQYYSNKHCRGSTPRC
Protocol: as §1, §2

[3] = tested on: IL-1β-stimulated PGE2 secretion in articular chondrocytes; experiment: IL-1β-stimulated PGE2 secretion in articular chondrocytes (EIA); type: cell-based, rabbit; conditions: C1 at 8 µM, IL-1β 1 ng/mL (data not shown)
Protocol: We tested the effect of C8 on the IL-1β-stimulated secretion of PGE2 in chondrocytes. PGE2 synthesis takes place mainly in response to cell activation by IL-1β, and its generation accounts for many of the actions induced by this cytokine. In vitro, IL-1β induces the expression of COX-2 by chondrocytes, which results in increased PGE2 production. PGE2 release thus represents a powerful IL-1β- and PLA2-dependent inflammatory marker in our cell model. Chondrocytes were treated for 20 h with IL-1β alone or 1 h after the addition of C8. […] In DMEM alone, at concentrations of 0.31-, 0.62-, 0.94-, and 1.24-µM, C8 decreased the production of PGE2 induced by IL-1β by 59-, 58-, 74-, and 80-%, respectively (Fig. 4A). In DMEM supplemented with 0.1% BSA, at concentrations of 0.31-, 0.62-, 0.94-, 1.24-, 2.48-, and 4.96-µM, C8 decreased the production of PGE2 induced by IL-1β by 31-, 30-, 45-, 43-, 81-, and 92-%, respectively (Fig. 4B). In DMEM supplemented with 2% FCS, at concentrations of 0.31-, 0.62-, 0.94-, 1.24-, 2.48-, and 4.96-µM, C8 decreased the production of PGE2 induced by IL-1β by 26-, 48-, 49-, 54-, 68-, and 68-%, respectively (Fig. 4C). […] The effect of C8 was then evaluated at the extreme concentrations (0.31- and 4.96-µM) in DMEM supplemented with 2% FCS and containing decreasing (1-, 0.5-, and 0.25-ng/mL) IL-1β concentrations (Table 3). The anti-IL-1β inhibitory effect of C8 at 0.31 µM increases when IL-1β concentration decreases. […] This is probably due to the fact that at 4.96 µM, the inhibitory effect of C8 on IL-1β-induced PGE2 production is maximal. […] Thus, C8, but not C1, decreases the IL-1β-stimulated PGE2 secretion in a dose-dependent manner in the three culture medium compositions used.
Articular chondrocytes were isolated from 5-week-old Fauve de Bourgogne female rabbits (CPA, Orleans, France) and cultured at the first passage in conditions avoiding cell dedifferentiation as previously described. Cells were cultured at 37°C in 12-well plates in Ham's F-12 medium containing 10% FCS, 20 IU/mL penicillin, and 20 µg/mL streptomycin (all from Invitrogen) until nearly confluent. Then medium was replaced with DMEM (Invitrogen) containing 20 IU/mL penicillin, and 20 µg/mL streptomycin and, if necessary, 0.1% fatty acid free BSA (Sigma) or 2% FCS. At this time the C8 compound dissolved in DMSO (Sigma) was added to the medium (the amount of DMSO was kept at 1‰ (v/v) in all the wells). 1 h after the addition of C8, IL-1β (PeproTech) was added to the medium. Consequently, chondrocytes were incubated for 20 h with IL-1β and for 21 h with C8.
20 h after the addition of IL-1β to the chondrocytes, culture media were collected, and aliquots were stored at −80°C until PGE2 and nitrite quantification. PGE2 concentration in culture media was determined by use of an enzyme immunoassay (EIA) kit (PGE2 EIA Kit-monoclonal; Cayman Chemical). Nitrite concentration was determined by a spectrophotometry method based on the Griess reaction. Briefly, 200 µL of culture medium or sodium nitrite (NaNO2, Merck) standard dilutions were mixed with 100 µL Griess reagent [0.5% (w/v) sulphanilic acid (Merck), 0.05% (w/v) N(1-naphtyl)ethylenediamine (Merck), 30% (v/v) acetic acid, 1.5 N HCl] and incubated for 10 min at 50°C. The absorbance was measured at 540 nm.

[4] = tested on: atherosclerosis in apolipoprotein-E-null mice; set-up: method as in PMID 19129734; conditions: cited from earlier work

T1 sequence (P00592 23-146): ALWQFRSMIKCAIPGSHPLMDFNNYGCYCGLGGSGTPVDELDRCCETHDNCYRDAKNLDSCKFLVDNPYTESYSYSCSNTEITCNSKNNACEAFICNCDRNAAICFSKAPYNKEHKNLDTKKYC

Row | SMILES | IC50 [1] [µM] | IC50 [2] [µM] | effect on PGE2 secretion stimulated by IL-1β [3] | effect on atherosclerosis [4]
1 | O=c1[nH]c(Cc2ccc(OCCCCCn3ccc4ccccc43)cc2)no1 [C1, 3-{4-[5-(indol-1-yl)pentoxy]benzyl}-4H-1,2,4-oxadiazol-5-one] | > 100 | 5 ± 0.7 | does not decrease | –
2 | O=c1[nH]c(Cc2ccc(OCCCCCn3ccc4cc(Cl)ccc43)cc2)no1 [C4] | > 100 | 6.5 ± 1.8 | – | –
3 | CCc1c(C(=O)C(N)=O)c2c(OCC(=O)O)cccc2n1Cc1ccccc1 [Varespladib] | – | – | – | reduce atherosclerosis

The next lines start with results.

Row | IC50 [1] [µM] | IC50 [2] [µM] | SMILES | effect on PGE2 secretion stimulated by IL-1β [3] | effect on atherosclerosis [4]
4 | > 100 | 10 ± 1.5 | O=c1[nH]c(Cc2ccc(OCCCCCOc3ccccc3-c3ccccc3)cc2)no1 [C2] | – | –
5 | > 100 | 5 ± 1.2 | Cc1nc2cc(OCCCCCOc3ccc(Cc4noc(=O)[nH]4)cc3)ccc2s1 [C3] | – | –
6 | > 100 | 2.5 ± 0.5 | COc1ccc2c(ccn2CCCCCOc2ccc(Cc3noc(=O)[nH]3)cc2)c1 [C5] | – | –
7 | > 100 | 3 ± 0.2 | O=c1[nH]c(Cc2ccc(OCCCCCOc3ccc(-c4ccccc4)cc3)cc2)no1 [C6] | – | –
8 | > 100 | 35 ± 1.8 | O=c1[nH]c(Cc2ccc(OCCCCCOc3ccccc3)cc2)no1 [C7] | – | –
